Article PMC12563652 (International Journal of Molecular Sciences, 2025)

Assays:
HEPG2 cell line = assay: Cell viability assay (PrestoBlue, metabolic function), HepG2; format: cell-based, human; details: 24 h, mean
Procedure: Prior to investigating the biological activity and molecular characteristics of the test compounds in vitro, a comprehensive cytotoxicity screening was performed using HepG2 and 3T3-L1 cell lines. Two complementary assays were applied: one based on the quantification of adenylate kinase release as an indicator of cell membrane damage, and another relying on resazurin reduction to assess cellular metabolic activity. These complementary assays enable sensitive and reliable detection of cytotoxic effects across diverse cell types. This preliminary assessment was carried out to ensure that subsequent functional analyses would not be confounded by nonspecific cytotoxic effects.
Cell viability was measured using PrestoBlue reagent (Thermo Fisher Scientific, Waltham, MA, USA), following the manufacturer’s instructions. After 24 h of compound treatment, PrestoBlue reagent was added to each well at 10% of the remaining medium volume. The plate was incubated at 37 °C for 15 min, and fluorescence was measured using the POLARstar Omega plate reader (excitation 530 nm, emission 580 nm). Results were expressed as a percentage of viable cells relative to the DMSO-treated control.

HepG2 cells = assay: Glucose consumption (Amplex Red assay) in HepG2 cells; format: cell-based, human
Procedure: The HepG2 human hepatocellular carcinoma cell line (ATCC® HB-8065™) was cultured in DMEM supplemented with 10% FBS, 100 µg/mL streptomycin, and 100 IU/mL penicillin at 37 °C in 5% CO2. Cells were seeded in 96-well plates at a density of 10,000 cells/well and used for experiments 24 h after plating.
Stock solutions of test compounds were prepared at a concentration of 10 mM in dimethyl sulfoxide (DMSO). At least 1 mg of each substance was carefully measured and mixed with the right amount of DMSO. A series of dilutions were made in DMSO and then further diluted in phosphate-buffered saline before being introduced into the cell culture medium. Precipitation or opalescence was assessed prior to application.
The glucose uptake was measured with the Amplex® Red Glucose/Glucose Oxidase Assay Kit from Thermo Fisher Scientific, following the guidelines provided by the maker. Cell culture supernatants were collected and incubated with a reaction mix containing 100 μM Amplex® Red reagent, 0.2 U/mL horseradish peroxidase (HRP), and 1 U/mL glucose oxidase at room temperature for 30 min in the dark. Fluorescence was measured at 530 nm excitation and 590 nm emission using the POLARstar Omega plate reader (BMG Labtech).

α2B-adrenoceptor = molecular target: T1, α2B-adrenoceptor (Homo sapiens, UniProt P18089); assay: α2B-adrenoceptor intrinsic activity, antagonist mode (AequoScreen); format: cell-based; details: n.a. = no activity at 10–5 M; read-out: α2B Ant IC50
T1 sequence (P18089 1-450): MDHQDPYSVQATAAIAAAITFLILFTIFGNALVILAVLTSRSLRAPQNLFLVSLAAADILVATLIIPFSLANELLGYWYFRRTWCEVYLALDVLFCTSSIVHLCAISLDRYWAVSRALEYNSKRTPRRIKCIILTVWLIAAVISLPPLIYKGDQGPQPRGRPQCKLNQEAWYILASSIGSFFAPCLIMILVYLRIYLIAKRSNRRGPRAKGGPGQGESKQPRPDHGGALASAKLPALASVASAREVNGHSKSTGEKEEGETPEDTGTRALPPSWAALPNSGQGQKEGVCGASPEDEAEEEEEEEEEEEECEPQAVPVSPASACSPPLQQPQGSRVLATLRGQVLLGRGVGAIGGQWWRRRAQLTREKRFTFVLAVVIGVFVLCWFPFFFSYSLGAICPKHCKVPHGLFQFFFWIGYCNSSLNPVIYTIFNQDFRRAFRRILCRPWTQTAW
Procedure: The determination of intrinsic activity will be performed in accordance with the manufacturer’s Aequoscreen methodology—Perkin Elmer.
The cell density in the 96-well format was 5000 cells per well. Cell preparation for the assay was performed according to the manufacturer’s instructions for AequoScreen (PerkinElmer, Waltham, MA, USA). […] The cells suspension was applied onto the ligands with the injectors of the POLARstar optima reader (BMG Labtech, Ortenberg, Germany). […] The concentration and dilution series having four replicates were prepared as instructed in the AequoScreen Starter Kit Manual (PerkinElmer, Waltham, MA, USA). The wells received cell injections along with either the standard agonist or the compounds being evaluated, while the POLARstar optima reader documented the emitted light over a duration of 20 s. In the antagonist evaluation, cells were administered (50 μL) into the assay plate alongside antagonist solutions (50 μL). A single concentration of agonist (oxymetazoline) was injected (50 μL, final concentration EC80) into the preincubated (15–20 min) plate with cells and antagonist, and the emitted light was recorded for 20 s.

Danio rerio larvae = assay: In vivo toxicity assay in zebrafish larvae (Casper and ABTL lines)
Procedure: To determine the toxicity of JP-14 to zebrafish larvae, 76 h post-fertilized (hpf) larvae ([…], ten per well) were kept in a 6-well plate and exposed to three concentrations of compound JP-14 diluted with embryonic medium (E3), whereas untreated larvae served as control (E3 alone). Each concentration was incubated in twelve wells. The mortality rate and disturbances were determined using a microscope (OPTA-TECH MN16, Warszawa, Poland) after 24 h of exposure.

C57BL/6 mice = assay: Inhibition of gastric emptying (mouse model, phenol red); format: in vivo
Procedure: Fifty male C57BL/6 mice (22–27 g) were housed in standard cages while maintaining a 12:12-h light/dark cycle, with food and water available ad libitum. The experimental procedures were performed from 10:00 a.m. to 14:00 p.m.
The experiment was conducted according to Miyasaka et al. and Kotańska et al., with some minor modifications. Mice were subjected to a 20 h food deprivation and a 2 h water deprivation prior to testing. The animals received a vehicle (0.25 mL/mouse) alone or along with various compounds: JP-14 (10 mg/kg b. w.), RT (5 mg/kg body weight), metformin (100 mg/kg b. w.), or loperamide (reference compound; 10 mg/kg b. w.) via gastric gavage. Following a 45 min interval, phenol red (0.5 mL, 0.05% w/v) combined with glucose (1 g/kg body weight) was administered through the same route. Additionally, each group received an intraperitoneal injection of heparin (2500 U/mouse) 20 min prior to the collection of stomach contents. Seven mice treated with the vehicle were sacrificed immediately after the phenol red administration to serve as a standard control (representing 100% phenol red in the stomach at 0 min), establishing a baseline for maximum absorbance (100%). The leftover mice were sacrificed 30 min later. The stomachs were removed and homogenized using an OMNI homogenizer (OMNI International Company, Kennesaw, GA, USA), with 10 mL of 0.1 N NaOH. To 5 mL of homogenate, 0.5 mL of 20% w/v solution of trichloroacetic acid was incorporated to precipitate the proteins. Subsequently, the samples were centrifuged at 600× g for 15 min at a temperature of 20 °C, and 0.25 mL of supernatant was mixed with 1 mL of 0.5 N NaOH to achieve maximum color intensity. The concentration of phenol red was measured using spectrophotometry, with absorbance evaluated at a wavelength of 560 nm (MuLTISKAN.GO, Thermo Fisher Scientific Inc., Waltham, MA USA). For each mouse, the percentage of gastric emptying (GE %) was calculated using the following equation:(1) GE%=(Ac0−Ab)/(Ac0−Ac30)×100% where: Ac0 is the absorbance of the control gastric sample collected immediately after dye administration, and Ac30 is the absorbance of the control gastric sample collected 30 min after dye administration, i.e., Ac0–Ac30 = 100% gastric emptying.

SMILES: [H]/N=C(\N)NN=Cc1c(Cl)cncc1Cl [JP-14, (E)-2-((3,5-Dichloropyridin-4-yl)Methylene)Hydrazine-1-Carboximidamide]
- cellular metabolic function, percentage relative to control (live cells) (HEPG2 cell line; Table S4, 0.1 μM): 96%
- cellular metabolic function, percentage relative to control (live cells) (HEPG2 cell line; Table S4, 1 μM): 101%
- cellular metabolic function, percentage relative to control (live cells) (HEPG2 cell line; Table S4, 10 μM): 95%
- cellular metabolic function, percentage relative to control (live cells) (HEPG2 cell line; Table S4, 50 μM): 71%
- cellular metabolic function, percentage relative to control (live cells) (HEPG2 cell line; Table S4, 100 μM): 60%
- glucose-stimulating effect under TAAR1 blockade (HepG2 cells; 10 µM + RTI-7470-44 (40 nM)): substantially attenuated
- increase in glucose consumption (uptake) (HepG2 cells; 10 µM, relative to vehicle-treated cells): 29%
- IC50 (α2B-adrenoceptor): 622 nM
- effect on pigmentation (Danio rerio larvae): no effect on pigmentation was observed
- concentration not causing any visible disturbances (Danio rerio larvae; Casper and AB/TL lines, zebrafish (Danio rerio), 24 h): 10000 ng/mL
- reduction of the effect of JP-14 on gastric emptying by RTI-7470-44 (C57BL/6 mice; JP-14 10 mg/kg + RTI-7470-44 5 mg/kg b.w.): about 40%
- percentage inhibition of gastric emptying (C57BL/6 mice; JP-14 10 mg/kg b.w. combined with RTI-7470-44 5 mg/kg b.w.): about 25%
- percentage inhibition of gastric emptying (C57BL/6 mice; intragastric, 10 mg/kg b.w.): about 66%
